Tests used:
[1] = tested on: HIV-infected CD4+ T-cells; test: Binding of secreted 10-1074 bnAb to HIV-infected CD4+ T-cells (flow cytometry); conditions: virus from latent reservoir of participant OM5334, high MOI (~70% Gag+)
Description: Binding of secreted 10-1074 bnAb to HIV-Infected CD4^+ T-cells. […] These cells were then stained with a fluorochrome-conjugated anti-human-IgG1 antibody, and analyzed by flow cytometry. […] We therefore performed an additional experiment using a lower multiplicity of infection (MOI) of the HIV molecular clone SF162. […] However, it has been well-established that Ab-binding to infected cells is predictive of ADCC^6.

[2] = tested on: non-expressing cells; test: HIV binding: non-expressing cells (flow cytometry); conditions: supernatant of transduced cells
[3] = tested on: HIV envelope expressing HeLa cells; test: HIV binding: HIV envelope expressing HeLa cells (flow cytometry); conditions: supernatant of transduced cells
Protocol: HIV envelope expressing HeLa cells were obtained from NIH AIDS Reagent Program (69T1 RevEnv Cells, #3336). HeLa Envelope cells were fixed with 4.2% paraformaldehyde (BD, #554655) for 20 minutes at 4° C. Cells were washed in chilled Facs Buffer (PBS+2% FBS) and incubated in supernatant containing secreted antibody from transduced Jurkat T cells or non-specific antibodies from nontransduced Jurkat T cells for 1 hour at room temperature. Cells were washed an additional two times in Facs Buffer and incubated with goat anti-human IgG (H+L) FITC (Life Technologies, #H10301) for 30 minutes at room temperature.
To test whether the T cell secreted antibodies maintain their ability to recognize HIV envelope, we used HeLa cells expressing Env obtained from the AIDS reagent program.

[4] = tested on: pseudovirus; test: Standard pseudovirus neutralization assay; assay type: cell-based, HIV
Protocol: Virus neutralization by secreted 10-1074. We also tested whether the supernatants secreted from TbnAb are capable of neutralizing HIV by using a standard pseudovirus assay. Briefly, supernatants obtained from TbnAbs were diluted five fold and incubated with pseudovirus. Target cells were then added, and a single-round of infection was allowed to proceed for 48 h^1. In certain lines, we observed 20-30% neutralization of virus at this single concentration (data not shown). […] (data not shown). […] Thus, the data support that the 10-1074 in these supernatants is functionally equivalent to purified 10-1074 on a per concentration basis.

[5] = tested on: viruses isolated from quantitative viral outgrowth assay (QVOA) supernatants; test: Neutralization of viruses isolated from QVOA supernatants; assay type: cell-based, HIV
Description: (§1) We developed a method to perform paired testing of neutralization and infected-cell binding (predictive of ADCC^6) and applied this to 36 viruses that we isolated from quantitative viral outgrowth assay (QVOA) supernatants, using a panel of 14 clinically relevant bnAbs.

[6] = tested on: viruses isolated from quantitative viral outgrowth assay (QVOA) supernatants; test: Infected-cell binding with viruses isolated from QVOA supernatants; parameters: species or system HIV
Description: as §1

[7] = tested on: HIV SF162; test: Viral inhibition assay (p24); assay type: cell-based; conditions: antibody alone, absence of NK cells, n=2 replicates
[8] = tested on: HIV; conditions: in a subset of the population; cited from earlier work
[9] = biological target: HIV envelope (Env) expressed on HeLa cells (69T1 RevEnv Cells) (HIV); test: cell-based or functional assay
[10] = biological target: 36 viruses isolated from quantitative viral outgrowth assay (QVOA) supernatants; test: cell-based or functional assay

Molecule: TbnAb secreted 10-1074: 10-1074 antibody secreted into supernatants by transduced T cells
- binding to HIV-infected CD4+ T cells [1]: specific binding
- binding to HIV-infected CD4+ T cells ([1]; listed as antibody secreted by HIV specific TbnAb cell lines): specifically binds
- binding to non-expressing cells [2]: not
- binding to envelope-expressing cells [3]: bind
- neutralization of virus ([4]; supernatants diluted five fold (0.03 ug/ml of 10-1074), single-round infection 48 h, certain lines): 20-30%

Molecule: 10-1074: Monoclonal antibody 10-1074 targets the V3 glycan supersite on the HIV-1 envelope (Env) protein; broadly neutralizing
- binding to HIV-infected CD4+ T cells [1]: efficient binding
- viruses potently neutralized ([5]; 36 viruses isolated from QVOA supernatants): 24/36
- median IC50 against reservoir viruses ([5]; reservoir viruses): 0.3 mg/L
- binding characteristics (breadth and potency) ([6]; 36 viruses, panel of 14 bnAbs): superior binding characteristics
- infected cell binding ([6]; OM5162 virus isolate #3): lack of 10-1074 binding
- infected cell binding ([6]; patient OM5162 virus isolate #1): binding
- concentration giving 20-30% neutralization ([4]; purified antibody curves): 0.01 to 0.1 µg/mL
- HIV p24 (viral inhibition) ([7]; FIG. 10A): 6892.442±168.555
- HIV p24 (viral inhibition) ([7]; FIG. 10B): 757.911±163.351
- HIV p24 (viral inhibition) ([7]; FIG. 10C): 22914.671±2305.507
- HIV RNA levels [8]: transiently decrease HIV RNA levels

B1: T cell-secreted 10-1074 antibody from the 10-1074 Ab construct (IgG3 constant region) (antibody, V domains shown)
VH: QVQLQESGPGLVKPSETLSVTCSVSGDSMNNYYWTWIRQSPGKGLEWIGYISDRESATYNPSLNSRVVISRDTSKNQLSLKLNSVTPADTAVYYCATARRGQRIYGVVSFGEFFYYYSMDVWGKGTTVTVSS
VL: SYVRPLSVALGETARISCGRQALGSRAVQWYQHRPGQAPILLIYNNQDRPSGIPERFSGTPDINFGTRATLTISGVEAGDEADYYCHMWDSRSGFSWSFGGATRLTVLV
- NK cell killing (ADCC; europium cytotoxicity assay, primary NK cells) [9]: 34.5
- increase in killing from ADCC [9]: 10.5%

B2: 10-1074 antibody (purified) (antibody, V domains shown)
VH: QVQLQESGPGLVKPSETLSVTCSVSGDSMNNYYWTWIRQSPGKGLEWIGYISDRESATYNPSLNSRVVISRDTSKNQLSLKLNSVTPADTAVYYCATARRGQRIYGVVSFGEFFYYYSMDVWGKGTTVTVSS
VL: SYVRPLSVALGETARISCGRQALGSRAVQWYQHRPGQAPILLIYNNQDRPSGIPERFSGTPDINFGTRATLTISGVEAGDEADYYCHMWDSRSGFSWSFGGATRLTVL
- median IC50 (neutralization) [10]: 0.3 mg/L
